According to patent publication US20210353683A1, “ADDITIVE FOR MEDIUM FOR PROMOTING PRODUCTION OF PARACRINE FACTOR” (NISSAN CHEMICAL CORPORATION, priority 2018, published 2021):

Assays:
Type in all cases: cell-based
[1] = tested on: Human bone marrow-derived mesenchymal stem cells (hMSC); experiment: Paracrine factor release amount test 1: Angiogenin (ANG) in culture supernatant by ELISA; settings: 5 μM for 48 hr, then 48 hr in compound-free medium, relative to 2D DMSO control
Description: (§1) Human bone marrow-derived mesenchymal stem cells (hMSC, manufactured by PromoCell) were precultured by a single layer culture method (2D) using Mesenchymal Stem Cell Growth Medium 2 (manufactured by PromoCell). hMSCs were suspended in the same medium. In three-dimensional culture method (3D), hMSCs were seeded at 5×10^5 cells/2 mL/well on a cell-non-adhesive 6-well EZSPHERE plate (manufactured by AGC TECHNO GLASS, #4810-900) having a depression on the bottom surface. In 2D, hMSCs were seeded on a 6-well flat bottom plate (manufactured by Corning Incorporated, #3516) at 5×10^5 cells/2 Continuously, compounds k-1:B-1, k-1:D-1, k-1:J-1 dissolved in DMSO were added at 2 μL/well to a final concentration of 5 μM, and the mixture was cultured in an incubator at 37° C., 5% CO2 for 48 hr. As a control, DMSO was added at a final concentration of 0.05%. After 48 hr, the medium was exchanged with a medium not containing the compound, and the cells were cultured in an incubator at 37° C., 5% CO2. After 48 hr, the culture supernatant was recovered. The number of cells at the time of recovery of the culture supernatant was measured by dispersing the cells in single cells using Detach Kit (manufactured by PromoCell), suspending a part thereof in Trypan Blue (manufactured by Wako Pure Chemical Industries, Ltd.) and counting the number of viable cells using TC-20 (manufactured by BIO-RAD).
Angiogenin (ANG), a cytokine which is one kind of paracrine factor contained in the culture supernatant, was quantified using a plate reader. For the quantification, Human Angiogenin ELISA Kit (manufactured by Abcam, #ab99970) was used.
(§2) The concentration of ANG in the culture supernatant was normalized by the cell count, and the relative values for the control group cultured in 2D are shown in Table 4. As a result, the secretion amount increased in both 2D culture and 3D culture by adding compounds k-1:B-1, k-1:D-1, and compound k-1:J-1. Therefrom it was clarified that the secretion of the paracrine factor can be promoted by adding the compounds k-1:B-1, k-1:D-1, and compound k-1:J-1 to the mesenchymal stem cells.

[2] = tested on: Human bone marrow-derived mesenchymal stem cells (hMSC); experiment: Paracrine factor release amount test 2: Stanniocalcin-1 (STC-1) in culture supernatant by ELISA; settings: 5 μM for 48 hr, then 48 hr in compound-free medium, relative to 2D DMSO control
Description: (§3) Human bone marrow-derived mesenchymal stem cells (hMSC, manufactured by PromoCell) were precultured by a single layer culture method (2D) using Mesenchymal Stem Cell Growth Medium 2 (manufactured by PromoCell). hMSCs were suspended in the same medium. In three-dimensional culture method (3D), hMSCs were seeded at 5×10^5 cells/2 mL/well on a cell-non-adhesive 6-well EZSPHERE plate (manufactured by AGC TECHNO GLASS, #4810-900) having a depression on the bottom surface. In 2D, hMSCs were seeded on a 6-well flat bottom plate (manufactured by Corning Incorporated, #3516) at 5×10^5 cells/2 mL/well. Continuously, compound k-1:B-1 dissolved in DMSO was added at 2 μL/well to a final concentration of 5 μM, and the mixture was cultured in an incubator at 37° C., 5% CO2 for 48 hr. […] The number of cells at the time of recovery of the culture supernatant was measured by dispersing the cells in single cells using Detach Kit (manufactured by PromoCell), suspending a part thereof in Trypan Blue (manufactured by Wako Pure Chemical Industries, Ltd.) and counting the number of viable cells using TC-20 (manufactured by BIO-RAD).
Stanniocalcin-1 (STC-1), a cytokine which is one kind of paracrine factor contained in the culture supernatant, was quantified using a plate reader. For the quantification, Human Stanniocalcin ELISA Kit (manufactured by Abcam, #ab213829) was used. […]

[3] = tested on: Human bone marrow-derived mesenchymal stem cells (hMSC); experiment: Paracrine factor release amount test 3: VEGF in culture supernatant by ELISA; settings: 5 μM for 48 hr, then 48 hr in compound-free medium, relative to 2D DMSO control
Description: as §1, with “5×10^5 cells/2 mL/well. Continuously, compounds” for “5×10^5 cells/2 Continuously, compounds”
Vascular endothelial growth factor (VEGF), a cytokine which is one kind of paracrine factor contained in the culture supernatant, was quantified using a plate reader. For the quantification, Human VEGF ELISA Kit (manufactured by Abcam, #ab100662) was used.
as §2, with “VEGF” for “ANG”, “7.” for “4.”

[4] = tested on: Human bone marrow-derived mesenchymal stem cells (hMSC); experiment: Paracrine factor release under inflammation stimulation (TNFα): TSG-6 in culture supernatant by ELISA; settings: 5 μM for 48 hr, then 48 hr with 10 ng/mL TNFα only, relative to 2D DMSO control
Description: as §3, with “k-1:J-1” for “k-1:B-1”, “hr. As a control, DMSO was added at a final concentration of 0.05%.” for “hr.”
Tumor necrosis factor-inducible gene 6 protein (TSG-6), a cytokine which is one kind of paracrine factor contained in the culture supernatant, was quantified using a plate reader. […]

[5] = tested on: Human bone marrow-derived mesenchymal stem cells (hMSC); experiment: Paracrine factor release under inflammation stimulation (TNFα): MCP-1 in culture supernatant by flow cytometer; settings: 5 μM for 48 hr, then 48 hr with 10 ng/mL TNFα only, relative to 2D DMSO control
Description: as §3, with “mL/well.” for “mL/well. Continuously, compound k-1:B-1 dissolved in DMSO was added at 2 μL/well to a final concentration of 5 μM, and the mixture was cultured in an incubator at 37° C., 5% CO2 for 48 hr.”
Monocyte Chemotactic Protein-1 (MCP-1), a cytokine which is one kind of paracrine factor contained in the culture supernatant, was quantified using a flow cytometer. The quantification analysis was performed using BD™ CBA Flex Set (manufactured by BD 558287) according to the protocol of BD. […]

Compound | ANG, relative value of secretion amount (pg) per 10000 cells ([1]; 2D culture) | ANG, relative value of secretion amount (pg) per 10000 cells ([1]; 3D culture) | STC-1, relative value of secretion amount (pg) per 10000 cells ([2]; 2D culture) | STC-1, relative value of secretion amount (pg) per 10000 cells ([2]; 3D culture) | VEGF, relative value of secretion amount (pg) per 10000 cells ([3]; 2D culture) | VEGF, relative value of secretion amount (pg) per 10000 cells ([3]; 3D culture) | TSG-6, relative value of secretion amount (pg) per 10000 cells ([4]; 2D culture) | TSG-6, relative value of secretion amount (pg) per 10000 cells ([4]; 3D culture) | MCP-1, relative value of secretion amount (pg) per 10000 cells ([5]; 2D culture) | MCP-1, relative value of secretion amount (pg) per 10000 cells ([5]; 3D culture)
CCC(=NNC(=O)C(C)Nc1ccccc1)c1ccc(O)c(C)c1O (racemic) [k-1:B-1] | 1.34 | 1.38 | 2.67 | 8.95 | 4.40 | 3.59 |  |  |  | 
CCC(=NNC(=O)CNc1cccc(O)c1)c1ccc(O)c(C)c1O [k-1:D-1] |  | 1.50 |  |  |  | 3.27 |  |  |  | 
CCC(=NNC(=O)NCc1cccc(O)c1)c1ccc(O)c(C)c1O [k-1:J-1] |  | 1.38 |  |  |  | 6.18 | 1.56 | 3.21 | 0.85 | 1.41
